# Experimental data taken from patent publication US10975060B2, “High relaxivity gadolinium chelate compounds for use in magnetic resonance imaging” (BAYER PHARMA AKTIENGESELLSCHAFT, priority 2016, dated 2021).
# Read-outs that look alike come from different tables or passages of the source.
# Assays:
# [1] = Contrast-enhanced magnetic resonance angiography (CE-MRA) at 1.5 T, intraindividual comparison; format: in vivo, New Zealand white rabbits; conditions: rabbits, 25 μmol Gd/kg bw versus standard dose 100 μmol/kg and example compound 6 at 25 μmol/kg
# Description: Reference compound 1 (Gadovist®), as an approved representative of the Gadolinium-based MRI contrast agents, was used in both dose protocols (100 μmol Gd/kg bw and 25 μmol Gd/kg bw) and compared to example compound 6 (25 μmol Gd/kg bw).
# The contrast-enhanced magnetic resonance angiography study was performed at a clinical 1.5 T Scanner (Magnetom Avanto Fit, Siemens Healthcare, Erlangen, Germany). For optimal signal exploitation, a spine in combination with a body-flex coil was used for the data acquisition. The study was performed on male New Zealand white rabbits (weight 3.6-3.9 kg, n=4, Charles River Kisslegg). The animals received all 3 contrast protocols within one imaging session. The order of the contrast protocols was randomized between the animals.
# All animals are initially anesthetized using a body weight-adjusted intramuscular injection of a mixture (1+2) of xylazine hydrochloride (20 mg/mL, Rompun 2%, Bayer Vital GmbH, Leverkusen, Germany) and ketamine hydrochloride (100 mg/mL, Ketavet, Pfizer, Pharmacia GmbH, Berlin, Germany) using 1 mL/kg body weight. The continuous anesthesia of the intubated animals (endotracheal tube, Rueschelit Super Safe Clear, cuff 3.0 mm, Willy Ruesch A G, Kernen, Germany) is achieved by the intravenous injection of 0.9 mg propofol per kilogram per hour (10 mg/mL, Propofol-Lipuro 1%, B. Braun Melsungen A G, Melsungen, Germany). The continuous intravenous injection is performed using a MR infusion system (Continuum MR Infusion System, Medrad Europe B. V., A E Beek, Germany). The tracheal respiration (SV 900C, Maquet, Rastatt, Germany) is performed with 55% oxygen, forty breaths per minute, and a breathing volume of 4 mL per kilogram body weight per minute.
# Based on a localizer MRI sequence oriented in coronal, axial, and sagittal directions the anatomic course of the aorta is acquired. A small intravenous test bolus (0.2 mL, Reference compound 1 followed by 1.3 mL saline) was administered to determine the time to peak interval (descending aorta) using a test bolus sequence. The MRA delay time between the start of the contrast injection and the start of image acquisition was calculated by subtracting the time to k-space center from the time to peak interval. For MRA a 3D FLASH sequence (TR=3.3 ms, TE=1.2 ms, flip=25°) was acquired before and after injection of the contrast agent considering the delay time. Both measurements were performed within expiratory breath hold. The time interval for the intraindividual comparison between the different contrast agent applications was twenty to thirty minutes.
# Quantitative image evaluation was performed on the subtraction images (post contrast—baseline). […]
# [2] = 37 °C, cited from earlier work
# [3] = Pharmacokinetic parameters of blood plasma levels after i.v. bolus in male rats (three compartment model); format: in vivo, rats (Han-Wistar); conditions: i.v. bolus 0.1 mmol Gd/kg, mean, n=3
# Description: Pharmacokinetic parameters of Example 6 were determined in male rats (Han-Wistar, 235-270 g, n=3). The compound was administered as a sterile aqueous solution (53.8 mmol Gd/L) as a bolus in the tail vein of the animals. The dose was 0.1 mmol Gd/kg. Blood was sampled 1, 3, 5, 10, 15, 30, 60, 90, 120, 240, 360, 480, and 1440 min post injection and the Gd concentration was determined by Inductively Coupled Plasma Mass Spectrometry (ICP-MS Agilent 7500a, Waldbronn, Germany). The blood level was converted to plasma concentrations by division by 0.625 (plasma fraction of rat blood, assuming strictly extracellular distribution). As a control, 3 animals (Han-Wistar, 248-289 g), were treated in the same way with Reference Compound 1 (Gadovist®), a low molecular weight contrast agent.
# The fit of the obtained data to a three compartment model (Phoenix-WinNonlin) yielded the pharmacokinetic parameters which are shown in Table 3.
# [4] = Dynamic CT diffusion phantom study (dialysis cassette in fetal bovine serum); format: physicochemical; conditions: dialysis cassette 20,000 MWCO, 20 mmol Gd/L, CT signal over 30 h
# Description: The described dynamic CT diffusion study compares the ability of Examples 1-10 and Reference compounds 1 and 4 to pass a semipermeable membrane (20 kDa). A 128-row clinical CT device (SOMATOM Definition, 128; Siemens Healthcare, Forchheim, Germany) was used to monitor the diffusion through a semipermeable membrane at 100 kV and 104 mA. Single measurements were performed at 0 min, 1 min, 2 min, 3 min, 5 min, 10 min, 15 min, 20 min, 30 min, 45 min, 60 min, 2 h, 3 h, 5 h, 7 h, 22 h, 24 h, 30 h after placing the dialysis cassette (Slide-A-Lyser, 20,000 MWCO, 0.1-0.5 mL Capacity, Thermo Scientific, Roskilde, Denmark) filled with contrast agent in fetal bovine serum solution (FBS, Sigma, F7524). The images were reconstructed with a slice thickness of 2.4 mm and a B30 convolution kernel. The used concentration in the dialysis cassettes of the investigated Examples 1-10 and Reference compounds 1 and 4 was 20 mmol Gd/L.
# The imaging results for all investigated Examples and the Reference compounds 1 and 4 for the time points 0 min and 30 h after placing the cassettes in the FBS solution are depicted in FIG. 1. For image analysis, regions of interest were manually drawn on 1 centrally located slice for each time point (a representative measurement region is indicated in FIG. 1: Image RC1).
# [5] = Relaxivity measurements at 3.0 T (whole body MRI scanner, 37 °C) in water and human plasma; format: physicochemical; conditions: normalized to Gd, average ± standard deviation
# Description: Relaxivity Measurements at 3.0 T
# Relaxivity measurements at 3.0 T were performed with a whole body 3.0 T MRI Scanner (Philips Intera, Philips Healthcare, Hamburg, Germany) using a knee-coil (SENSE-Knee-8, Philips Healthcare, Hamburg, Germany). The sample tubes (CryoTubetm Vials, Thermo Scientific 1.8 mL, Roskilde, Denmark) were positioned in 3 rows of 4 and 5 tubes in a plastic holder in a box filled with water. The temperature was adjusted to 37° C. For the MRI sequence the shortest possible echo-time (TE) with 7.46 milliseconds was used. The inversion times were chosen to optimize the sequence to measure T1 values corresponding to the estimated T1 range of all relaxation times of contrast media containing solutions. The following inversion times (TIs) were applied: 50, 100, 150, 200, 300, 500, 700, 1000, 1400, 2100, 3200, and 4500 milliseconds. The sequence was run with a constant relaxation delay of 3.4 seconds after the registration of the last echo (variable TR in the range from 3450 to 7900 milliseconds). For details of the fit procedure, see Rohrer et. al. (Invest. Radiol. 2005; 40, 11: 715-724). The experimental matrix of the phantom measurement was 320×320.
# The relaxivities were evaluated using three different concentrations of each compound (3 concentrations between 0.05 and 2 mM).
# The T1 relaxation times of Example compounds were measured in water and human plasma. Human plasma preparation: For each experiment fresh blood was taken from a volunteer using 10 mL citrate-tubes (Sarstedt S-Monovette 02.1067.001, 10 mL, Citrate). The 10 mL citrate-tubes were carefully inverted 10 times to mix blood and anticoagulant and centrifuged for 15 minutes at 1811 g at room temperature (Eppendorf, Centrifuge 5810R).
# The relaxivities ri (where i=1, 2) were calculated on the basis of the measured relaxation rates Ri in water and plasma: Ri=Ri(0)+ri[CGd], where Ri(0) represent the relaxation rate of the respective solvent and CGd the concentration of the compound normalized to the Gadolinium (Table 2).
# [6] = Water solubility (exploratory, 10 mM Tris-HCl, 20 °C); format: physicochemical; conditions: water (10 mM Tris-HCl buffer), pH 7.4
# Description: The exploratory water solubilities of the compounds were determined at room temperature (20° C.) in 0.5 mL buffer solution (10 mM Tris-HCl) in the microcentrifuge tubes (Eppendorf, 2.0 mL safe-lock caps). The solid compounds were added stepwise to the buffer solution. The suspension was mixed using a shaker (Heidolph Reax 2000) and treated 5 min in an ultrasound bath (Bandelin, Sonorex Super RK255H).
# [7] = Relaxivity measurements at 1.4 T (MiniSpec mq60, 60 MHz, 37 °C) in water and human plasma; format: physicochemical; conditions: 1.41 T, normalized to Gd
# Description: Relaxivity Measurements at 1.4 T
# Relaxivity measurements at 1.41 T were performed using a MiniSpec mq60 spectrometer (Bruker Analytik, Karlsruhe, Germany) operating at a resonance frequency of 60 MHz and a temperature of 37° C. The T1 relaxation times were determined using the standard inversion recovery (IR) method with a fixed relaxation delay of at least 5×T1. The variable inversion time (TI) was calculated automatically by the standard software of the MiniSpec mq60 (8 steps). The T2 measurements were done by using a Carr-Purcell-Meiboom-Gill (CPMG) pulse sequence, applying a relaxation delay of at least 5×T1.
# Each relaxivity measurement was performed using three different Gd concentrations (3 concentrations between 0.05 and 2 mM). The T1 and T2 relaxation times of the example compounds 1 to 10 were measured in different media for example in water and human plasma. Human plasma preparation: For each experiment fresh blood was taken from a volunteer using 10 mL citrate-tubes (Sarstedt S-Monovette 02.1067.001, 10 mL, Citrate). The 10 mL citrate-tubes were carefully inverted 10 times to mix blood and anticoagulant and centrifuged for 15 minutes at 1811 g at room temperature (Eppendorf, Centrifuge 5810R).
# The relaxivities ri (where i=1, 2) were calculated on the basis of the measured relaxation rates Ri in water and plasma: Ri=Ri(0)+ri[CGd], where Ri(0) represent the relaxation rate of the respective solvent and CGd the concentration of the compound normalized to the Gadolinium. The Gadolinium concentrations of the investigated solutions were verified by Inductively Coupled Plasma Mass Spectrometry (ICP-MS Agilent 7500a, Waldbronn, Germany).
SMILES,vascular contrast at the reduced dose (25 μmol/kg) of the reference compound [1],"r1 human plasma ([2]; 1.5 T, bovine plasma instead of human plasma, from Rohrer et al.)","r1 water ([2]; 1.5 T, from Rohrer et al.)","r1 human plasma ([2]; 3.0 T, plasma, reference compounds marked ^ (Rohrer et al., bovine plasma per Table 1 footnote))","r1 water ([2]; 3.0 T, reference compounds marked ^ (Rohrer et al. per Table 1 footnote))",AUC∞ Area under the curve (to infinity) [3],MRT Mean residence time [3],"V1 + V2 Volume, compartments V1 + V2 [3]","V2 Volume, compartment V2 [3]","Vd, ss Volume of distribution at steady state [3]","t½ α Half-life, compartment V1 [3]","t½ β Half-life, compartment V2 [3]","t½ γ Half-life, compartment V3 [3]",Diffusion half-live (20 kDa) [4],r1 human plasma ([5]; human plasma),r1 water ([5]; water),Solubility [6],r1 human plasma ([7]; human plasma),r1 water ([7]; water)
"O=C([O-])CN1CCN(CC(=O)[O-])CCN([C@H](CO)[C@H](O)CO)CCN(CC(=O)[O-])CC1.[Gd+3] (racemic) [RC1, gadobutrol, reference compound]",considerable lower,5.2 L/mmol/s,3.3 L/mmol/s,5.0 ± 0.3 L/mmol/s,3.2 ± 0.3 L/mmol/s,11334 µmol·min/L,40.5 min,0.11 L/kg,0.16 L/kg,0.26 L/kg,1.80 min,22.1 min,780 min,2.1 h,,,,,
"O=C([O-])CN1CCN(CC(=O)[O-])CCN(CC(=O)N(CC(=O)NCC(CNC(=O)CN(C(=O)CN2CCN(CC(=O)[O-])CCN(CC(=O)[O-])CCN(CC(=O)[O-])CC2)C2CCCC2)(CNC(=O)CN(C(=O)CN2CCN(CC(=O)[O-])CCN(CC(=O)[O-])CCN(CC(=O)[O-])CC2)C2CCCC2)CNC(=O)CN(C(=O)CN2CCN(CC(=O)[O-])CCN(CC(=O)[O-])CCN(CC(=O)[O-])CC2)C2CCCC2)C2CCCC2)CCN(CC(=O)[O-])CC1.[Gd+3].[Gd+3].[Gd+3].[Gd+3] [Example 8, Tetragadolinium [4,10-bis(carboxylatomethyl)-7-{3,13-dicyclopentyl-8,8-bis({[(cyclopentyl{[4,7,10-tris(carboxylatomethyl)-1,4,7,10-tetraazacyclododecan-1-yl]acetyl}-amino)acetyl]amino}methyl)-2,5,11,14-tetraoxo-15-[4,7,10-tris(carboxylatomethyl)-1,4,7,10-tetraazacyclododecan-1-yl]-3,6,10,13-tetraazapentadec-1-yl}-1,4,7,10-tetra-azacyclododecan-1-yl]acetate]",,,,,,,,,,,,,,10.5 h,12.0 ± 0.4 L/mmol/s,10.7 ± 0.1 L/mmol/s,>1000 mg/100 mL,14.1 L/mmol/s,11.7 L/mmol/s
